Measured values: patent US20110021786A1, “Pharmaceutical Solutions, Process of Preparation and Therapeutic Uses” (UCB PHARMA, S.A., priority 2008, published 2011)
Read-outs that look alike come from different tables or passages of the source.

Legend:
[1] = test system: audiogenic seizures in sound-susceptible mice; test: animal model of sound-susceptible mice; format: in vivo; details: Mus musculus, ip; intraperitoneally 60 minutes before induction of audiogenic seizures; dose producing 50% protection
From the text: The objective of this test is to evaluate the anticonvulsant potency of a compound in sound-susceptible mice, a genetic animal model with reflex seizures. In this model of primary generalised epilepsy, seizures are evoked without electrical or chemical stimulation and the seizure types are, at least in part, similar in their clinical phenomenology to seizures occurring in man (Löscher W. 85 Schmidt D., Epilepsy Res. (1998), 2, 145-181; Buchhalter J. R., Epilepsia (1993), 34, S31-S41).
Male or female genetically sound-sensitive mice (14-28 g; N=10), derived from a DBA strain originally selected by Dr. Lehmann of the Laboratory of Acoustic Physiology (Paris) and bred in the UCB Pharma Sector husbandry unit since 1978, are used. The experimental design consisted of several groups, one group receiving the vehicle control and the other groups different doses of the test-compound. The compounds are administered intraperitoneally 60 minutes before the induction of audiogenic seizures.
For testing, the animals are placed in small cages, one mouse per cage, in a sound-attenuated chamber. […] During this interval, the mice are observed and the presence of the 3 phases of the seizure activity namely wild running, clonic and tonic convulsions, is recorded. The proportion of mice protected against wild running, clonic and tonic convulsions, respectively, is calculated. […]

[2] = molecular target: T1, Levetiracetam Binding Site (LBS) (Rattus norvegicus, UniProt Q02563); test: LBS binding assay; design: species or system Sprague-Dawley rats
T1 construct: from tissue; host or cells: rat cerebral cortex crude membranes (male Sprague-Dawley)
Experimental: [LBS stands for Levetiracetam Binding Site cf. M. Noyer et al., Eur. J. Pharmacol., 286 (1995) 137-146.]
The inhibition constant (Ki) of a compound is determined in competitive binding experiments by measuring the binding of a single concentration of a radioactive ligand at equilibrium with various concentrations of the unlabeled test substance. The concentration of the test substance inhibiting 50% of the specific binding of the radioligand is called the IC50. The equilibrium dissociation constant Ki is proportional to the IC50 and is calculated using the equation of Cheng and Prusoff (Cheng Y. et al., Biochem. Pharmacol. […], 22, 3099-3108).
The concentration range usually encompasses 6 log units with variable steps (0.3 to 0.5 log). Assays are performed in mono- or duplicate, each Ki determination is performed on two different samples of test substance. […]
Membranes (150-200 μg of protein/assay) are incubated at 4° C. for 120 min in 0.5 ml of a 50 mmol/l Tris-HCl buffer (pH 7.4) containing 2 mmol/l MgCl2, 1 to 2 10^−9 mol/l of [^3H]-2-[4-(3-azidophenyl)-2-oxo-1-pyrrolidinyl]butanamide and increasing concentrations of the test substance. […] The radioactivity trapped onto the filters is counted by liquid scintillation in a β-counter (Tri-Carb 1900 or TopCount 9206, Camberra Packard, Belgium, or any other equivalent counter). […]

[3] = bioavailability and safety of an intravenous formulation of brivaracetam; format: in vivo, healthy subjects
Experimental: A first step of the study done in a 3-way crossover in 24 healthy subjects (12 females, 12 males) compares the single-dose bioavailability of brivaracetam 10 mg oral tablets versus brivaracetam 10 mg administered as a 15 minute intravenous infusion, and as an IV bolus. In a second step, a single-dose escalation study (25 mg, 50 mg, 100 mg and 150 mg) is performed in 4 consecutive groups of 6 subjects (3 females, 3 males) to gain information and as a fast IV bolus, to assess the pharmacokinetics of brivaracetam at these dosing regimens and to explore dose proportionality.

[4] = stability test of brivaracetam solutions at different pH; format: physicochemical
Experimental: Solutions at different pH are prepared (natural pH (not buffered) and pH 4.5, 5.0, 5.5, 6.0. The pH is controlled by means of an adequate buffer in order to obtain the wished pH (in the example by 50 mM citrate).
(§1) The solution is dispensed in 1.5 ml sealed glass vials.
(§2) A stability test is performed at 25° C., 40° C., 60° C. and 80° C.
The pH of the various solutions is measured at the beginning of the test and after 2 weeks, 4 weeks, and 10 weeks. The amounts of degradation products in the brivaracetam solutions are dosed in the various solutions.

[5] = stability test of seletracetam solutions at different pH; format: physicochemical
Experimental: Solutions at different pH are prepared (natural pH (not buffered) and pH 4.5, 5.0, 5.5, 6.0. The pH is controlled by means of an adequate buffer in order to obtain the wished pH (in the example: 50 mM acetate).
as §1, §2
The pH of the various solutions is measured at the beginning of the test and after 2 weeks, 4 weeks, and 10 weeks. The amounts of degradation products in the seletracetam solutions are dosed in the various solutions.

[6] = 10 mg IV infusion or IV bolus versus 10 mg oral tablet, fully contained within the bioequivalence range
[7] = solution having a pH range of 5.0 and 6.0
[8] = solution in the range of pH of 4.5 and 6.5

T1 sequence (Q02563 whole entry): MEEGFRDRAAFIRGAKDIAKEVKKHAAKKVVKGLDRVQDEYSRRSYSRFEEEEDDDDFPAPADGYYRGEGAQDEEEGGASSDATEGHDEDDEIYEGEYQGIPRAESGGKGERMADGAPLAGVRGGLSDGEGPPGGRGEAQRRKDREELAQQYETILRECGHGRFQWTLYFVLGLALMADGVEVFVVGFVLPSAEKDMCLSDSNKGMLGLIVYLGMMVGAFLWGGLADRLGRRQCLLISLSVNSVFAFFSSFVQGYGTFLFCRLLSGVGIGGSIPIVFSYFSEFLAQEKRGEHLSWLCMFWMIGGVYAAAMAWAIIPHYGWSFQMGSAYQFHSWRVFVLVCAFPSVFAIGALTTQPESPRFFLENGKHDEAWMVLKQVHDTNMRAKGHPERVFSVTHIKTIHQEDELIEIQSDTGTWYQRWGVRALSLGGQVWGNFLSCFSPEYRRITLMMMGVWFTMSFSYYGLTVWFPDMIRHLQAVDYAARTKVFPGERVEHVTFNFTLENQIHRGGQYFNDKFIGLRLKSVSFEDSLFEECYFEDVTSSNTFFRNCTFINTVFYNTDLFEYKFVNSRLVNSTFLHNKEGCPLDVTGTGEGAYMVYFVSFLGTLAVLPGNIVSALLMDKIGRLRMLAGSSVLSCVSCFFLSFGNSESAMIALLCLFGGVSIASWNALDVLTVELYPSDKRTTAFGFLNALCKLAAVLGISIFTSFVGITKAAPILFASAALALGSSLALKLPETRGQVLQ

| SMILES | ED50 [1] | Ki [2] | 90% confidence intervals of geometric ratios of AUC [3, 6] | 90% confidence intervals of geometric ratios of Cmax [3, 6] | bioequivalence to single dose of brivaracetam 10 mg oral tablet ([3]; 10 mg via 15-minute IV infusion, healthy subjects) | bioequivalence to single dose of brivaracetam 10 mg oral tablet ([3]; 10 mg via IV bolus, healthy subjects) | pharmacokinetic parameters after IV infusion and IV bolus ([3]; IV infusion compared with IV bolus) | extent of exposure versus dose ([3]; dose range 25-150 mg) | safety and tolerability ([3]; from 25 mg to 150 mg as IV infusion or IV bolus, healthy subjects) | degradation rate [4, 7] | stability of solution [4, 8] | degradation rate [5, 7] | stability of solution [5, 8] | Ki ([2]; rat cerebral cortex membranes, [3H]-2-[4-(3-azidophenyl)-2-oxo-1-pyrrolidinyl]butanamide radioligand, read-out: pKi (converted)) |
| --- | --- | --- | --- | --- | --- | --- | --- | --- | --- | --- | --- | --- | --- | --- |
| CCC[C@@H]1CC(=O)N([C@@H](CC)C(N)=O)C1 [Brivaracetam, (2S)-2-[(4R)-2-oxo-4-propyl-pyrrolidin-1-yl] butanamide] | ≤ 100 µmol/kg | ≤ 1000 nM | 80-125% | 80-125% | bioequivalent | bioequivalent | similar | proportional to the administered dose | safe and well tolerated | lowest | stable |  |  |  |
| CC[C@@H](C(N)=O)N1C[C@H](C=C(F)F)CC1=O [Seletracetam, (2S)-2-[(4S)-4-(2,2-difluorovinyl)-2-oxo-pyrrolidin-1-yl]butanamide] | ≤ 100 µmol/kg |  |  |  |  |  |  |  |  |  |  | lowest | stable | ≤ 1000 nM |
